{"source": "patent US11401306B2", "about": "“HPV16 non HLA-restricted t-cell vaccines, compositions and methods of use thereof” (priority 2016, dated 2022)", "type_in_all_cases": "in vivo", "key": {"[1]": {"test_system": "HPV-specific CD8+ T-cell induction (splenocytes)", "assay": "ELISPOT in normal C57/B6 mice, peptide with other cationic lipids", "conditions": "stimulated with RAHYNIVTF (SEQ ID NO: 1)", "description": "To determine if the identified long HPV16 peptides are compatible with other cationic lipids besides DOTAP, the peptide corresponding to SEQ ID NO: 26 was used as the model peptide in combination with two other cationic lipids DOTMA and DOEPC. To evaluate the ability of the peptides to effectively undergo processing and presentation, in the presence of both cationic lipids, an ELISPOT study was conducted using normal C57/B6 mice. ELISPOT studies were performed as described above and utilized to determine effective CD8+ T-cell induction.\nIn formulation 1, 1.35 mg/mL of DOTMA was mixed 1:1 v/v with 0.5 mg/mL of the peptide corresponding to SEQ ID NO: 26.\nIn formulation 2, 1.67 mg/mL of DOEPC was missed 1:1 v/v with 0.5 mg/mL of the peptide corresponding to SEQ ID NO: 26.\nFor each formulation 4 mice were vaccinated on Day 0 and Day 7. On Day 14 the mice were scarified and the splenocytes utilized in the ELISPOT study."}, "TC-1 tumor": {"test_system": "TC-1 tumor", "assay": "TC-1 tumor regression screening of peptides in C57/B6 mice", "parameters": "key: Positive: a positive T-cell response was a T-cell response that resulted in regression of the tumor", "conditions": "TC-1 tumors in C57/B6 mice, vaccinated day 7, peptide alone or with cationic lipid", "source_text": "(§1) Sequence selection was accomplished herein using both tumor regression studies in C57/B6 mice, and interferon-gamma ELISPOT studies in HLA-A2 humanized transgenic mice. […] In the HLA-A2 mouse model ELISPOT study, at least 20 spots per million splenocytes was regarded to be a positive response.\nThis example illustrates the evaluation or screening of several HPV16 E7 peptides in the TC-1 mouse tumor regression model for their effective processing and presentation of the key epitopes leading to HPV-specific T-cell induction and subsequent tumor regression.\nIn the tumor regression screening studies mice were implanted with 100,000 TC-1 cells on day 0. On day 7, once the tumors were well established the mice were vaccinated with the specific peptide sequences, either formulated alone or in combination with cationic lipids such as DOTMA, DOEPC or R-DOTAP to facilitate up-take and presentation. In these studies, the vaccine contained the selected peptide at a concentration of 0.1-3.0 mg/mL and cationic liposomes at a concentration of 0.2-3.0 mg/mL. In the cases where the peptide sequences were lipidated by attaching a palmitoyl chain, the peptides were simply mixed with the cationic liposomes prior to vaccination. In the case of the non-lipidated peptides, the liposomes were made and peptides encapsulated by traditional thin film liposome preparation methods (F Szoka, and D Papahadjopoulos, Comparative Properties and Methods of Preparation of Lipid Vesicles (Liposomes), Annual Review of Biophysics and Bioengineering, Vol. 9:467-508, 1980). Other methods well known to those skilled in the art may also have been used.\nA sample tumor regression plot showing results for peptides corresponding to SEQ ID NO: 1 (blank square), SEQ ID NOS: 7, 8, 31 32 and 31 (solid black circle), SEQ ID NO: 7 (blank circle), and SEQ ID NO: 8 (solid black triangle) is shown in FIG. 3."}, "[2]": {"test_system": "HPV-specific T-cell response (splenocytes)", "assay": "IFN-g ELISPOT on splenocytes of vaccinated humanized HLA-A2 transgenic mice", "source_text": "as §1\nThis example highlights the approach to evaluating T-cell responses using ELISPOT studies in humanized HLA-A2 transgenic mice. In these studies, the vaccine contained the selected peptide at a concentration of 0.1-3.0 mg/mL and cationic liposomes when used, at a concentration of 0.2-3.0 mg/mL. Humanized HLA-A2 transgenic mice having components of the human immune system capable of recognizing human antigens were vaccinated on day 0 and day 7 with 100 uL of the vaccine. On day 14 the mice were sacrificed and HPV-specific immune response evaluated by interferon-gamma ELISPOT using standard approaches with the splecocytes from the mice (4-8 per group). The splenocytes were stimulated with the specified CD8+ T-cell epitope peptides or the long multi-epitope peptides specified in Table 2. The number of IFN-g spots per million cells is listed for the specified examples. […] The ability of the humanized transgenic mice to successfully generate a T-cell immune response (>20 spots) when stimulated with each of the long multi-epitope peptides as well as short single epitope peptides confirms that the selected peptides are effectively processed and presented to T-cells. In these studies, un-stimulated splenocytes and splenocytes stimulated with irrelevant peptides were both used together as negative controls in every assay. For the positive control in the assay ConA was used.\nThe present study was performed to evaluate the effect of chemical modification of select peptides on immunogenicity and their ability to be processed, presented and to prime human CD8+ HPV-specific T-cell responses. Peptides corresponding to SEQ ID NO: 23 and 25 contain cysteines which upon oxidation lead to the formation of dimers and other multimers. Two vaccine formulations were prepared containing peptides corresponding to SEQ ID NO: 23 and 25.\nIn Formulation A: Both peptides were monomeric with high purity confirmed by HPLC analysis. The vaccine contained 1.5-1.6 mg/mL of each peptide.\nIn Formulation B: Significant oxidation and multimer formation of both peptides was confirmed by HPLC analysis.\nBoth formulations were mixed 1:1 with 5.8 mg/mL of R-DOTAP prior to vaccination.\nThe immunogenicity of the peptides was compared as described in the above examples in 10 HLA-A2 mice per formulation by evaluating the ability to induce CD8+ T-cells. ELISPOT studies were performed as described above."}}, "data": [{"substance": "PalmKSS GQAEPDRAHYNIVTF [SEQ ID NO: 26]", "values": [{"measurement": "ELISPOT result Av spots/10^6 cells", "setting": "[1]; formulated with DOEPC (formulation 2)", "value": 243, "unit": "spots/10^6 cells"}, {"measurement": "ELISPOT result Av spots/10^6 cells", "setting": "[1]; formulated with DOTMA (formulation 1)", "value": 988, "unit": "spots/10^6 cells"}, {"measurement": "Immune Response, Method: tumor regression", "setting": "TC-1 tumor", "value": "Positive tumor regression"}, {"measurement": "Immune Response, Method: ELISPOT", "setting": "[2]; HLA-A2 humanized transgenic mice, IFN-gamma ELISPOT", "value": "Positive, ELISPOT (at least 20 spots per million splenocytes was regarded to be a positive response)"}, {"measurement": "ELISPOT result Av spots/10^6 cells", "setting": "[2]; splenocytes stimulated with GQAEPDRAHYNIVTF (SEQ ID NO: 5)", "value": "1,544 spots/10^6 cells"}, {"measurement": "ELISPOT result Av spots/10^6 cells", "setting": "[2]; splenocytes stimulated with RAHYNIVTF (SEQ ID NO: 1)", "value": "1,552 spots/10^6 cells"}]}]}
